Measurements: patent publication US6566394B1, “Salicylamide derivatives” (Mercian Corporation, priority 1999, dated 2003)

Key:
[1] = tested on: collagen-induced arthritis; assay: Collagen-induced arthritis preventing effect; assay type: in vivo, mouse; details: mice, intraperitoneal 2 mg/kg or 4 mg/kg, 3 times/week, 18 times/6 weeks; FIGS. 2(A), 2(B)
Protocol: B) Collagen-induced Arthritis Preventing Effect
Type II collagen was emulsified together with an equivalent volume of Freund's complete adjuvant to prepare 1.5 mg/ml of administration solution. This was intradermally inoculated to the radicular portion of mouse tail in an amount of 0.1 ml (150 μg/mouse) to sensitize the mouse. After 3 weeks, 0.1 ml of type II collagen emulsified in the same operational manner as described was intraperitoneally administered to mouse (150 μg/mouse) to effect booster immunization to induce arthritis.
6 Animals/group of mice were intraperitoneally administered with DHM2EQ and DHM3EQ in a dosage of 2 mg/kg or 4 mg/kg 3 times/week from the day of initial immunization in a ratio of 0.1 ml/10 g of the bodyweight, in total 18 times/6 weeks. The control group (6 animals/group) was administered with 0.5% CMC solution in the same schedule as described above and to provide normal group (4 animals/group) in which no collagen arthritis was induced. The effect of inhibiting collagen-induced arthritis was evaluated by degrees of the flare, swelling and stiffening of anterior limb and posterior limb in scores of 0 to 4 (the maximum score of total for 4 limbs was 16).

NF-κB = NF-κB production inhibitory activity, luciferase reporter gene assay; assay type: cell-based; details: 3×κBTK-Luc reporter, 2 h preincubation, TNF-α (20 ng/ml) for 6 hours; FIGS. 1(A), 1(B)
Protocol: A) NF-κB Production Inhibitory Activity
The NF-κB production inhibitory activity was measured by luciferase reporter gene assay as shown below.
[Luciferase Reporter Gene Assay]
A reporter using luciferase DNA was prepared and the NF-κB production inhibitory activity was measured by use of promoter/reporter assay.
As the plasmid for luciferase assay, 3×κBTK-Luc (endowed by Dr. Junichiro INOUE of The Institute of Medical Science, The University of Tokyo) obtained by coupling luciferase gene derived from lampyrid to 3×κB derived from Igκ gene and HSV-TK promoter was used. Further, for the β-galactosidase assay, a plasmid obtained by coupling β-galactosidase gene to β-actin promoter (endowed by Dr. Junichiro INOUE of The Institute of Medical Science, The University of Tokyo) was used.
2) Transfection and Luciferase Assay
Transfection was performed by a DEAE-dextran method. […]
For 10 μl of the sample, 100 μl of a luminescent substrate solution (Tricine (20 mM), (MgCO3).4Mg(OH)2.5H2O (1.07 mM), MgSO4 (2.67 mM), EDTA (0.1 mM), DTT (33.3 mM), Coenzyme A (270 μM), luciferin (470 μM), and ATP (530 μM)) was added and amount of luminescence was quantitated by use of Lumat LB9501 (Berthold: Bad Wildbad, Germany). Further, the measured amounts were corrected by β-galactosidase assay to obtain the value of luciferase activity. […]

| Structure (SMILES) | inhibition of collagen-induced arthritis (score of flare, swelling, stiffening of 4 limbs) [1] | concentration at which NF-κB activity was inhibited (NF-κB) [µg/mL] |
| --- | --- | --- |
| O=C(NC1=CC(=O)C2OC2C1O)c1ccccc1O (stereo not shown) [DHM2EQ, 5,6-epoxy-4-hydroxy-3-salicyloylamino-2-cyclohexenone] | inhibited collagen-induced arthritis | ≥ 1 |
| O=C(NC1=CC(O)C2OC2C1=O)c1ccccc1O (stereo not shown) [DHM3EQ, 5,6-epoxy-4-hydroxy-2-salicyloylamino-2-cyclohexenone] | inhibited collagen-induced arthritis | 10 |
